Source: patent publication US4416884A, “Piperazinylbenzoheterocyclic compounds” (Otsuka Pharmaceutical Co., Ltd., priority 1978, dated 1983)
Converted amounts (≈) assume the structure as drawn. Structures can show the parent of a compound that is named as a salt. Where two headings read alike, the source gives them in different places.

What was measured:
Assay in all cases: antimicrobial activity, serial dilution method on agar plate
Format in all cases: cell-based
[1] = test system: Pseudomonas aeruginosa E-2
Method: (§1) The antimicrobial activity of the following test compounds on various test organisms listed below was determined by the serial dilution method on agar plate (Heart Infusion agar produced by Difco Co.) (see CHEMOTHERAPY 22, pp. 1126-1128 (1974)), and the minimum inhibitory concentrations (mcg/ml) obtained are shown in Table 1 below.
(§2) A sample of each test organism was prepared so that the population of the organism was 1×10^8 cells/ml (O.D. 660 mμ=0.07 to 0.16) and 1×10^6 cells/ml (which was obtained by diluting the above 1×10^8 cells/ml preparation).

[2] = test system: Salmonella typhi 0-901 (NCTC 8393); settings: Salmonella enterica
Method: as §1, §2

Klebsiella pneumoniae = test system: Klebsiella pneumoniae
Method: as §1, §2

[3] = test system: Pseudomonas aeruginosa ATCC 10145
Method: as §1, §2

Shigella Sonnei EW 33 = settings: read-out: Minimum Inhibitory Concentration
Method: as §1, §2

[4] = test system: Streptococcus pyogenes IID S-23
Method: as §1, §2

[5] = test system: Staphylococcus aureus FDA 209 P
Method: as §1, §2

[6] = test system: Serattia marcescens IFO 12648
Method: as §1, §2

[7] = test system: Pseudomonas aeruginosa NCTC 10490
Method: as §1, §2

Proteus rettgeri NIH 96 = settings: Providencia rettgeri
Method: as §1, §2

[8] = test system: Escherichia Coli NIHJ JC-2 (IFO 12734); settings: for MIC: Escherichia coli, read-out: Minimum Inhibitory Concentration
Method: as §1, §2

[9] = E2, inoculum 1 × 10^6 cells/ml, read-out: Minimum Inhibitory Concentration
[10] = E2, inoculum 1 × 10^8 cells/ml, read-out: Minimum Inhibitory Concentration
[11] = read-out: Minimum Inhibitory Concentration, inoculum 1 × 10^6 cells/ml
[12] = read-out: Minimum Inhibitory Concentration, inoculum 1 × 10^8 cells/ml
[13] = inoculum 1 × 10^6 cells/ml, read-out: Minimum Inhibitory Concentration
[14] = inoculum 1 × 10^8 cells/ml, read-out: Minimum Inhibitory Concentration
[15] = ATCC10145, inoculum 1 × 10^6 cells/ml, read-out: Minimum Inhibitory Concentration
[16] = ATCC10145, inoculum 1 × 10^8 cells/ml, read-out: Minimum Inhibitory Concentration
[17] = IIDS23, inoculum 1 × 10^6 cells/ml, read-out: Minimum Inhibitory Concentration
[18] = IIDS23, inoculum 1 × 10^8 cells/ml, read-out: Minimum Inhibitory Concentration
[19] = FDA209, inoculum 1 × 10^6 cells/ml, read-out: Minimum Inhibitory Concentration
[20] = FDA209, inoculum 1 × 10^8 cells/ml, read-out: Minimum Inhibitory Concentration
[21] = NCTC10490, inoculum 1 × 10^6 cells/ml, read-out: Minimum Inhibitory Concentration
[22] = NCTC10490, inoculum 1 × 10^8 cells/ml, read-out: Minimum Inhibitory Concentration
[23] = NIH96, inoculum 1 × 10^6 cells/ml, read-out: Minimum Inhibitory Concentration
[24] = NIH96, inoculum 1 × 10^8 cells/ml, read-out: Minimum Inhibitory Concentration
[25] = E2, read-out: Minimum Inhibitory Concentration, inoculum 1 × 10^8 cells/ml
[26] = ATCC10145, read-out: Minimum Inhibitory Concentration, inoculum 1 × 10^8 cells/ml
[27] = IIDS23, read-out: Minimum Inhibitory Concentration, inoculum 1 × 10^8 cells/ml
[28] = FDA209, read-out: Minimum Inhibitory Concentration, inoculum 1 × 10^8 cells/ml
[29] = NCTC10490, read-out: Minimum Inhibitory Concentration, inoculum 1 × 10^8 cells/ml
[30] = NIH96, read-out: Minimum Inhibitory Concentration, inoculum 1 × 10^8 cells/ml

Row | Compound | MIC [1, 9] | MIC [1, 10] | MIC [2, 11] | MIC [2, 12] | MIC (Klebsiella pneumoniae; [13]) | MIC (Klebsiella pneumoniae; [14]) | MIC [3, 15] | MIC [3, 16] | MIC (Shigella Sonnei EW 33; inoculum 1 × 10^6 cells/ml) | MIC (Shigella Sonnei EW 33; inoculum 1 × 10^8 cells/ml) | MIC [4, 17] | MIC [4, 18] | MIC [5, 19] | MIC [5, 20] | MIC [6, 13] | MIC [6, 14] | MIC [7, 21] | MIC [7, 22] | MIC (Proteus rettgeri NIH 96; [24]) | MIC ([8]; inoculum 1 × 10^8 cells/ml) | other results
1 | CC1CCc2c(N3CCN(C)CC3)c(F)cc3c(=O)c(C(=O)O)cn1c23 (centres unmarked) [Compound W, 8-(4-Methyl-1-piperazinyl)-9-fluoro-5-methyl-6,7-dihydro-1-oxo-1H,5H--benzo[ij]-quinolizine-2-carboxylic acid] | 3.1 mg/L (≈ 8.63 µM) | 6.3 mg/L (≈ 17.5 µM) | ≤ 0.05 mg/L | 0.1 mg/L (≈ 0.278 µM) | 0.2 mg/L (≈ 0.556 µM) | 0.4 mg/L (≈ 1.11 µM) | 1.6 mg/L (≈ 4.45 µM) | 3.1 mg/L (≈ 8.63 µM) | 0.2 mg/L (≈ 0.556 µM) | 0.2 mg/L (≈ 0.556 µM) | 1.6 mg/L (≈ 4.45 µM) | 1.6 mg/L (≈ 4.45 µM) | 0.4 mg/L (≈ 1.11 µM) | 0.4 mg/L (≈ 1.11 µM) | 0.4 mg/L (≈ 1.11 µM) | 0.4 mg/L (≈ 1.11 µM) | 1.6 mg/L (≈ 4.45 µM) | 1.6 mg/L (≈ 4.45 µM) | 0.4 mg/L (≈ 1.11 µM) | 0.4 mg/L (≈ 1.11 µM) | MIC (Proteus rettgeri NIH 96; [23]): 0.4 mg/L (≈ 1.11 µM); MIC ([8]; inoculum 1 × 10^6 cells/ml): 0.4 mg/L (≈ 1.11 µM)
2 | CC1CCc2c(N3CCNCC3)c(F)cc3c(=O)c(C(=O)O)cn1c23 (centres unmarked) [Compound X, 8-(1-Piperazinyl)-9-fluoro-5-methyl-6,7-dihydro-1-oxo-1H,5H--benzo[ij]quinolizine-2-carboxylic acid hydrobromide] | – | – | – | – | – | – | – | – | – | 0.2 mg/L | – | – | – | – | – | – | – | – | – | – | MIC [1, 25]: 1.6 mg/L; MIC [2, 14]: 0.1 mg/L; MIC (Klebsiella pneumoniae; [12]): 0.4 mg/L; MIC [3, 26]: 1.6 mg/L; MIC [4, 27]: 3.1 mg/L; MIC [5, 28]: 0.8 mg/L; MIC [6, 12]: 0.8 mg/L; MIC [7, 29]: 1.6 mg/L; MIC (Proteus rettgeri NIH 96; [30]): 0.1 mg/L; MIC [8]: 0.4 mg/L
3 | CC1Cc2c(N3CCNCC3)c(Cl)cc3c(=O)c(C(=O)O)cn1c23 (centres unmarked) [Compound Y, 8-Chloro-9-(1-piperazinyl)-2-methyl-6-oxo-1,2-dihydro-6H--pyrrolo[3,2,1-ij]-quinoline-5-carboxylic acid] | – | – | – | – | – | – | – | – | ≤ 0.05 mg/L | 0.1 mg/L (≈ 0.288 µM) | – | – | – | – | – | – | – | – | – | – | MIC ([1]; E2, read-out: Minimum Inhibitory Concentration, inoculum 1 × 10^6 cells/ml): 3.1 mg/L (≈ 8.91 µM); MIC [1, 25]: 3.1 mg/L (≈ 8.91 µM); MIC [2, 13]: ≤ 0.05 mg/L; MIC [2, 14]: 0.1 mg/L (≈ 0.288 µM); MIC (Klebsiella pneumoniae; [11]): 0.2 mg/L (≈ 0.575 µM); MIC (Klebsiella pneumoniae; [12]): 0.4 mg/L (≈ 1.15 µM); MIC ([3]; ATCC10145, read-out: Minimum Inhibitory Concentration, inoculum 1 × 10^6 cells/ml): 1.6 mg/L (≈ 4.6 µM); MIC [3, 26]: 1.6 mg/L (≈ 4.6 µM); MIC ([4]; IIDS23, read-out: Minimum Inhibitory Concentration, inoculum 1 × 10^6 cells/ml): 6.3 mg/L (≈ 18.1 µM); MIC [4, 27]: 12.5 mg/L (≈ 35.9 µM); MIC ([5]; FDA209, read-out: Minimum Inhibitory Concentration, inoculum 1 × 10^6 cells/ml): 3.1 mg/L (≈ 8.91 µM); MIC [5, 28]: 3.1 mg/L (≈ 8.91 µM); MIC [6, 11]: 0.4 mg/L (≈ 1.15 µM); MIC [6, 12]: 0.8 mg/L (≈ 2.3 µM); MIC ([7]; NCTC10490, read-out: Minimum Inhibitory Concentration, inoculum 1 × 10^6 cells/ml): 1.6 mg/L (≈ 4.6 µM); MIC [7, 29]: 1.6 mg/L (≈ 4.6 µM); MIC (Proteus rettgeri NIH 96; NIH96, read-out: Minimum Inhibitory Concentration, inoculum 1 × 10^6 cells/ml): 0.1 mg/L (≈ 0.288 µM); MIC (Proteus rettgeri NIH 96; [30]): 0.2 mg/L (≈ 0.575 µM); MIC [8]: 0.2 mg/L (≈ 0.575 µM); Minimum Inhibitory Concentration ([8]; inoculum 1 × 10^6 cells/ml): 0.2 µg/mL
4 | CC1Cc2c(N3CCN(C)CC3)c(Cl)cc3c(=O)c(C(=O)O)cn1c23 (centres unmarked) [Compound Z, 8-Chloro-9-(4-methyl-1-piperazinyl)-2-methyl-6-oxo-1,2-dihydro-6H--pyrrolo[3,2,1-ij]-quinoline-5-carboxylic acid] | 3.1 mg/L (≈ 8.57 µM) | 6.3 mg/L (≈ 17.4 µM) | 0.1 mg/L (≈ 0.276 µM) | 0.1 mg/L (≈ 0.276 µM) | 0.2 mg/L (≈ 0.553 µM) | 0.2 mg/L (≈ 0.553 µM) | 3.1 mg/L (≈ 8.57 µM) | 3.1 mg/L (≈ 8.57 µM) | 0.2 mg/L (≈ 0.553 µM) | 0.2 mg/L (≈ 0.553 µM) | 6.3 mg/L (≈ 17.4 µM) | 12.5 mg/L (≈ 34.5 µM) | 0.4 mg/L (≈ 1.11 µM) | 0.8 mg/L (≈ 2.21 µM) | 0.4 mg/L (≈ 1.11 µM) | 0.4 mg/L (≈ 1.11 µM) | 3.1 mg/L (≈ 8.57 µM) | 3.1 mg/L (≈ 8.57 µM) | 0.4 mg/L (≈ 1.11 µM) | 0.2 mg/L (≈ 0.553 µM) | MIC (Proteus rettgeri NIH 96; [23]): 0.2 mg/L (≈ 0.553 µM); MIC ([8]; inoculum 1 × 10^6 cells/ml): 0.2 mg/L (≈ 0.553 µM)
5 | CC1Cc2c(N3CCN(C)CC3)c(F)cc3c(=O)c(C(=O)O)cn1c23 (centres unmarked) [a] | 1.6 mg/L (≈ 4.63 µM) | 1.6 mg/L (≈ 4.63 µM) | ≤ 0.05 mg/L | ≤ 0.05 mg/L | 0.2 mg/L (≈ 0.579 µM) | 0.2 mg/L (≈ 0.579 µM) | 1.6 mg/L (≈ 4.63 µM) | 1.6 mg/L (≈ 4.63 µM) | 0.1 mg/L (≈ 0.29 µM) | 0.1 mg/L (≈ 0.29 µM) | 3.1 mg/L (≈ 8.98 µM) | 6.3 mg/L (≈ 18.2 µM) | 0.4 mg/L (≈ 1.16 µM) | 0.8 mg/L (≈ 2.32 µM) | 0.2 mg/L (≈ 0.579 µM) | 0.2 mg/L (≈ 0.579 µM) | 1.6 mg/L (≈ 4.63 µM) | 1.6 mg/L (≈ 4.63 µM) | 0.2 mg/L (≈ 0.579 µM) | 0.1 mg/L (≈ 0.29 µM) | MIC (Proteus rettgeri NIH 96; [23]): 0.1 mg/L (≈ 0.29 µM); MIC ([8]; inoculum 1 × 10^6 cells/ml): 0.1 mg/L (≈ 0.29 µM)
6 | CC1CCc2c(N3CCN(C(=O)C(F)(F)F)CC3)c(Cl)cc3c(=O)c(C(=O)O)cn1c23 (centres unmarked) [b] | – | 3.13 mg/L (≈ 6.84 µM) | – | 0.39 mg/L (≈ 0.852 µM) | – | 0.39 mg/L (≈ 0.852 µM) | – | 3.13 mg/L (≈ 6.84 µM) | – | 1.56 mg/L (≈ 3.41 µM) | – | 6.25 mg/L (≈ 13.7 µM) | – | 3.13 mg/L (≈ 6.84 µM) | – | – | – | – | 0.2 mg/L (≈ 0.437 µM) | 0.39 mg/L (≈ 0.852 µM) | MIC [6, 12]: 1.56 mg/L (≈ 3.41 µM); MIC [7, 29]: 1.56 mg/L (≈ 3.41 µM)
